Measurements from PubChem BioAssay AID1259411 (Chemical Carcinogenesis Research Information System (CCRIS), 2018).
Calls of active or inactive are those of the source. How the calls were made is not given here.

Tested on: rodent carcinogenicity bioassays, tumor incidence
Assay: CCRIS carcinogenicity studies
Method in brief: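 NCI-built, expert-reviewed records of carcinogenicity and related test outcomes (mutagenicity, tumor promotion/inhibition) compiled from published and report sources, historical span 1985-2011, not updated.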

**Q.** `CC(Cl)Cl` was tested. Which carcinogen call (Species: MOUSE, Strain/Sex: B6C3F1/FEMALE, Route: GAVAGE, Dose: 0, 1665, 3331 MG/KG 5/WK FOR 78 WK (STUDY DURATION: 91 WK), Dose: 0, 1665, 3331 MG/KG 5/WK FOR 78 WK (STUDY DURATION: 91 WK), Tumor Site: Type of Lesion: UTERUS: ENDOMETRIAL STROMAL POLYP) did it give?
**A.** equivocal

**Q.** And the carcinogen call (Species: MOUSE, Strain/Sex: B6C3F1/MALE, Route: GAVAGE, Dose: 0, 1,442, 2,885 MG/KG 5/WK FOR 78 WK (STUDY DURATION: 91 WK), Dose: 0, 1,442, 2,885 MG/KG 5/WK FOR 78 WK (STUDY DURATION: 91 WK))?
**A.** inactive; negative

**Q.** What about the carcinogen call (Species: RAT, Strain/Sex: OSBORNE-MENDEL/FEMALE, Route: GAVAGE, Dose: 0, 475, 950 MG/KG 5/WK FOR 78 WK (STUDY DURATION: 111 WK), Dose: 0, 475, 950 MG/KG 5/WK FOR 78 WK (STUDY DURATION: 111 WK), Tumor Site: Type of Lesion: MAMMARY GLAND: ADENOCARCINOMA, LUNG: HEMANGIOSARCOMA, SPLEEN: HEMANGIOSARCOMA, Tumor Site: Type of Lesion: MAMMARY GLAND: ADENOCARCINOMA, LUNG: HEMANGIOSARCOMA, SPLEEN: HEMANGIOSARCOMA) of the same molecule?
**A.** equivocal

**Q.** What about the carcinogen call (Species: RAT, Strain/Sex: OSBORNE-MENDEL/MALE, Route: GAVAGE, Dose: 0, 382, 764 MG/KG 5/WK FOR 78 WK (STUDY DURATION: 111 WK), Dose: 0, 382, 764 MG/KG 5/WK FOR 78 WK (STUDY DURATION: 111 WK)) of the same molecule?
**A.** inactive; negative

**Q.** `Clc1ccc(C(c2ccc(Cl)cc2)C(Cl)Cl)cc1` was tested. Which carcinogen call (Species: MOUSE, Strain/Sex: B6C3F1/FEMALE, Route: ORAL, Dose: 0, 411, 822 PPM IN DIET FOR 78 WK (STUDY DURATION: 93 WK), Dose: 0, 411, 822 PPM IN DIET FOR 78 WK (STUDY DURATION: 93 WK)) did it give?
**A.** inactive; negative

**Q.** And the carcinogen call (Species: MOUSE, Strain/Sex: B6C3F1/MALE, Route: ORAL, Dose: 0, 411, 822 PPM IN DIET FOR 78 WK (STUDY DURATION: 93 WK), Dose: 0, 411, 822 PPM IN DIET FOR 78 WK (STUDY DURATION: 93 WK))?
**A.** inactive; negative

**Q.** What about the carcinogen call (Species: MOUSE, Strain/Sex: CF-1/MALE,FEMALE, Route: ORAL, Dose: 250 PPM IN DIET, Tumor Site: Type of Lesion: LUNG) of the same molecule?
**A.** active; positive

**Q.** And the carcinogen call (Species: RAT, Strain/Sex: OSBORNE-MENDEL/FEMALE, Route: ORAL, Dose: 0, 850, 1700 PPM IN DIET FOR 78 WK (STUDY DURATION: 113 WK), Dose: 0, 850, 1700 PPM IN DIET FOR 78 WK (STUDY DURATION: 113 WK))?
**A.** inactive; negative

**Q.** What about the carcinogen call (Species: RAT, Strain/Sex: OSBORNE-MENDEL/MALE, Route: ORAL, Dose: 0, 1647, 3294 PPM IN DIET FOR 78 WK (STUDY DURATION: 113 WK), Dose: 0, 1647, 3294 PPM IN DIET FOR 78 WK (STUDY DURATION: 113 WK), Tumor Site: Type of Lesion: THYROID GLAND: FOLLICULAR CELL CARCINOMA OR ADENOMA) of the same molecule?
**A.** equivocal

**Q.** `O=C(O)C(Cl)(Cl)Cl` was tested. Which carcinogen call (Species: MOUSE, Strain/Sex: B6C3F1/FEMALE, Route: INTRAPERITONEAL, Dose: 0, 1000 NMOL TOTAL DOSE, 1/3 AND 2/3 OF THE TOTAL DOSE ADMINISTERED AT 8 AND 15 DAYS OF AGE RESPECTIVELY, ANIMALS TERMIN) did it give?
**A.** inactive; negative

**Q.** And the carcinogen call (Species: MOUSE, Strain/Sex: B6C3F1/FEMALE, Route: INTRAPERITONEAL, Dose: 0, 2000 NMOL TOTAL DOSE, 3/7 AND 4/7 OF THE TOTAL DOSE ADMINISTERED AT 8 AND 15 DAYS OF AGE RESPECTIVELY, ANIMALS TERMIN)?
**A.** inactive; negative

**Q.** And the carcinogen call (Species: MOUSE, Strain/Sex: B6C3F1/FEMALE, Route: ORAL, Dose: 0, 2, 6.67, 20 MMOL/L IN DRINKING WATER FOR 360 D (STUDY DURATION: 360 D), Dose: 0, 2, 6.67, 20 MMOL/L IN DRINKING WATER FOR 360 D (STUDY DURATION: 360 D), Tumor Site: Type of Lesion: LIVER: CARCINOMA)?
**A.** active; positive

**Q.** And the carcinogen call (Species: MOUSE, Strain/Sex: B6C3F1/FEMALE, Route: ORAL, Dose: 0, 2, 6.67, 20 MMOL/L IN DRINKING WATER FOR 576 D (STUDY DURATION: 576 D), Dose: 0, 2, 6.67, 20 MMOL/L IN DRINKING WATER FOR 576 D (STUDY DURATION: 576 D), Tumor Site: Type of Lesion: LIVER: ADENOMA, CARCINOMA)?
**A.** active; positive

**Q.** And the carcinogen call (Species: MOUSE, Strain/Sex: B6C3F1/MALE, Route: INTRAPERITONEAL, Dose: 0, 1000 NMOL TOTAL DOSE, 1/3 AND 2/3 OF THE TOTAL DOSE ADMINISTERED AT 8 AND 15 DAYS OF AGE RESPECTIVELY, ANIMALS TERMIN)?
**A.** inactive; negative

**Q.** What about the carcinogen call (Species: MOUSE, Strain/Sex: B6C3F1/MALE, Route: INTRAPERITONEAL, Dose: 0, 2000 NMOL TOTAL DOSE, 3/7 AND 4/7 OF THE TOTAL DOSE ADMINISTERED AT 8 AND 15 DAYS OF AGE RESPECTIVELY, ANIMALS TERMIN) of the same molecule?
**A.** inactive; negative

**Q.** What about the carcinogen call (Species: MOUSE, Strain/Sex: B6C3F1/MALE, Route: ORAL, Dose: 0, 1, 2 G/L IN DRINKING WATER FOR 52 WK (STUDY DURATION: 52 WK), Dose: 0, 1, 2 G/L IN DRINKING WATER FOR 52 WK (STUDY DURATION: 52 WK), Tumor Site: Type of Lesion: LIVER: ADENOMA OR HEPATOCELLULAR CARCINOMA) of the same molecule?
**A.** active; positive

**Q.** What about the carcinogen call (Species: MOUSE, Strain/Sex: B6C3F1/MALE, Route: ORAL, Dose: 0, 5 G/L (0; 31 MILLIMOLAR) IN DRINKING WATER FOR 61 WK (STUDY DURATION: 61 WK), Dose: 0, 5 G/L (0; 31 MILLIMOLAR) IN DRINKING WATER FOR 61 WK (STUDY DURATION: 61 WK), Tumor Site: Type of Lesion: LIVER: CARCINOMA) of the same molecule?
**A.** active; positive

**Q.** What about the carcinogen call (Species: RAT, Strain/Sex: F344/MALE, Route: ORAL, Dose: 0, 0.05, 0.5, 5 G/L IN DRINKING WATER FOR 104 WK (STUDY DURATION: 104 WK), Dose: 0, 0.05, 0.5, 5 G/L IN DRINKING WATER FOR 104 WK (STUDY DURATION: 104 WK)) of the same molecule?
**A.** inactive; negative

**Q.** How did the carcinogen call (Species: HAMSTER, Strain/Sex: SYRIAN, Route: DERMAL, Dose: 4 DROPS OF 1% SOLN IN ACETONE 2/WK FOR 10 WK, 8 DROPS FOR 40 WK, 4 DROPS FOR 5 WK, Tumor Site: Type of Lesion: INTEGUMENTARY SYSTEM (SKIN): PAPILLOMA, EPIDERMAL TUMOR) turn out when `Nc1ccc2cc3ccccc3cc2c1` was run?
**A.** active; positive

**Q.** What about the carcinogen call (Species: MOUSE, Strain/Sex: MALE,FEMALE, Route: DERMAL, Dose: 1% SATURATED SOLN IN ACETONE 2/WK (0.025 ML FOR 30 D OR 0.1 ML FOR 140 D), THEN 0.05 ML THEREAFTER, Tumor Site: Type of Lesion: INTEGUMENTARY SYSTEM (SKIN): SQUAMOUS CELL EPITHELIOMA) of the same molecule?
**A.** active; positive

**Q.** What about the carcinogen call (Species: RAT, Strain/Sex: ALBINO/MALE, Route: DERMAL, Dose: 1% IN ACETONE 2/WK FOR 34-36 WK, Tumor Site: Type of Lesion: INTEGUMENTARY SYSTEM (SKIN): SQUAMOUS CELL CARCINOMA, BASAL CELL EPITHELIOMA, FIBROSARCOMA) of the same molecule?
**A.** active; positive

**Q.** And the carcinogen call (Species: RAT, Strain/Sex: F344/MALE,FEMALE, Route: DERMAL, Dose: 0.18 ML OF 1% SOLN IN ACETONE 2/WK FOR 180 OR 250-300 D, Tumor Site: Type of Lesion: INTEGUMENTARY SYSTEM (SKIN): SQUAMOUS CELL CARCINOMA, BASAL CELL EPITHELIOMA, FIBROSARCOMA)?
**A.** active; positive

**Q.** And the carcinogen call (Species: RAT, Strain/Sex: HOLTZMAN/MALE,FEMALE, Route: DERMAL, Dose: 0.18 ML OF 1% SOLN IN ACETONE 2/WK FOR 180 OR 250-300 D, Tumor Site: Type of Lesion: INTEGUMENTARY SYSTEM (SKIN): SQUAMOUS CELL CARCINOMA, BASAL CELL EPITHELIOMA, FIBROSARCOMA)?
**A.** active; positive

**Q.** What about the carcinogen call (Species: RAT, Strain/Sex: LONG-EVANS/MALE,FEMALE, Route: DERMAL, Dose: 0.18 ML OF 1% SOLN IN ACETONE 2/WK FOR 180 OR 250-300 D, Tumor Site: Type of Lesion: INTEGUMENTARY SYSTEM (SKIN): SQUAMOUS CELL CARCINOMA, BASAL CELL EPITHELIOMA, FIBROSARCOMA) of the same molecule?
**A.** active; positive

**Q.** What about the carcinogen call (Species: RAT, Strain/Sex: SPRAGUE-DAWLEY/FEMALE, Route: GAVAGE, Dose: 0.05, 1.0, 2.5 MG IN 1 ML SESAME OIL 1/3 D FOR 10 D (TOTAL DOSE 0.5-25 MG), Dose: 0.05, 1.0, 2.5 MG IN 1 ML SESAME OIL 1/3 D FOR 10 D (TOTAL DOSE 0.5-25 MG), Tumor Site: Type of Lesion: MAMMARY GLAND) of the same molecule?
**A.** active; positive

**Q.** How did the carcinogen call (Species: RAT, Strain/Sex: WISTAR/MALE, Route: ORAL, Dose: 1.0 G/L IN DRINKING WATER 5/WK FOR 18 MO, Tumor Site: Type of Lesion: LIVER: HEPATOCELLULAR ADENOMA) turn out when `CC(C)=NO` was run?
**A.** active; positive
